# What was measured:
# [1] = tested on: GFRA2-positive MEL006 cells; assay: FACS of GFRA2-positive cells (NDTCs) in MEL006 cultures
# Description: Cells were resuspended in FACS sorting buffer (culture medium supplied with 1% EDTA 100 mM).
# [2] = tested on: MRD subpopulation gene signatures; assay: Analysis of available RNASeq data of melanoma patients on immunotherapy (Riaz et al. 2017); design: species or system human; conditions: patient subgroups SD+PD versus CR+PR; results not shown
# Description: Although the therapy selecting for these 4 MRD-stage subpopulations as applied in the Examples herein relies on combined inhibition of BRAF and MEK kinases, it can be envisaged that other therapeutic modalities also give rise to the emergence of the same or some of these 4 MRD-stage subpopulations. […] Likewise, targeted therapies of cancers other than melanoma can lead to a MRD phase during which one or more of the MRD subpopulations as identified herein for melanoma are present. Such targeted therapies include e.g. anti-VEGF (bevacizumab), anti-EGFR (cetuximab, erlotinib), mTOR inhibition (everolimus), Tyr-kinase inhibitor/anti-EGFR (gefitinib), Tyr-kinase inhibition/BCR-ABL inhibition (imatinib), anti-HER2/anti-EGFR (lapatinib), and Tyr-kinase inhibition (sorafenib, sunitinib). On the one hand, as described above, different therapies targeting melanoma can be expected to induce all or part of the minimal residual disease tumor subpopulations as described herein. On the other hand, it can be envisaged that inhibition of the MAPK-pathway (with BRAF and/or MEK inhibitors) is inducing in cancers or tumors different from melanoma one or more minimal residual disease tumor subpopulations as described herein for melanoma.
# wild-type cells (MM163) = assay: GFRA2 expression (RT-qPCR) in short-term melanoma culture; format: cell-based, human; conditions: triple wild-type culture exposed to both trametinib and bexarotene
# Description: C) wild-type cells (MM163).
# MM052 melanoma cells = assay: Colony assay and Cell Titer Glo assay in short culture melanoma line
# Description: Cells were grown to near confluency on 12well plates and treated with the indicated drug combinations for the indicated time period.
# 2500 cells were plated onto a 96well plate and treated with the indicated drug combinations for the indicated time period. Cell Titer Glo assay was performed according to the manufacturer's instruction (Promega) and luminescence was measured on a VictorX3 (Perkin Elmer).
# [3] = tested on: NRAS-mutant cells (MM165); assay: GFRA2 expression (RT-qPCR) in short-term melanoma culture; conditions: NRAS-mutant culture exposed to both trametinib and bexarotene
# Description: Cells resuspended in QiAzol using an miRNeasy Kit and processed according to the manufacturer's instructions (QIAGEN) or in RA1lysis buffer using the RNA NucleoSpin extraction kit (Macherey&Nagel).
# Data processing with qbase+2.6 software (Biogazelle) relies on normalization with a minimum of 2 reference genes, indicated as RefGen below.
# RAR = conditions: pan-RXR agonist; cited from earlier work
compound,measurement,setting,value
CN(c1ncccc1CNc1nc(Nc2ccc3c(c2)CC(=O)N3)ncc1C(F)(F)F)S(C)(=O)=O [PF-562271],drug-dependent emergence of the GFRA2-high cell population,[1]; FAK inhibitor added to DT-treated MEL006 cells,diminished the drug-dependent emergence of the GFRA2-high cell population in a dose-dependent manner
nivolumab: PD-1 inhibitor,induction of MRD subpopulations (trend),[2],induce at least the pigmented state and MITFmedium-hypometabolic state MRD subpopulations
C=C(c1ccc(C(=O)O)cc1)c1cc2c(cc1C)C(C)(C)CCC2(C)C [bexarotene],GFRA2 expression levels,wild-type cells (MM163),increase
same,effect on sensitivity to a combination of trametinib/FAK-inhibitors,MM052 melanoma cells; MM52 cells,increased the sensitivity
same,long-term growth inhibition,"MM052 melanoma cells; MM52 culture, compound alone",did not induce measurable long-term growth inhibition
same,cells in which cell death occurred,"MM052 melanoma cells; bexarotene with trametinib/FAK-inhibitors, after 3 days of treatment (data not shown)",~100%
same,effect on sensitivity of MM52 cells to trametinib,MM052 melanoma cells; concentrations as low as 10 nM,significantly decreased the sensitivity
same,GFRA2 expression levels,[3],increase
CC1(C)CCC(C)(C)c2cc(C3(c4ccc(C(=O)O)cc4)OCCO3)ccc21 [SR 11237],RAR activity,RAR,devoid of any RAR activity
CN1c2ccc([N+](=O)[O-])cc2N=C(c2ccc(C(=O)O)cc2)c2cc3c(cc21)C(C)(C)CCC3(C)C [HX531],effect on sensitivity of MM52 cells to trametinib,"MM052 melanoma cells; HX531 2 uM, trametinib 2 nM, colony assay 7 days, Cell Titer Glo 6 days",sensitized these cells to trametinib
same,drug-dependent induction of GFRA2-positive cells,[1]; in presence of IC50 concentrations of the BRAF and MEK-inhibitors,completely inhibited emergence of drug-dependent induction of GFRA2-positive cells

# Source: patent US20210010089A1, “TUMOR MINIMAL RESIDUAL DISEASE STRATIFICATION” (VIB VZW, priority 2018, published 2021)
